For data set [1] the following is noted: compared with the hydrochloride salts exemplified in WO98/30537; cited from earlier work.
Data set [2] is described as follows: Compatibility with standard pharmaceutical excipients of solid oral dosage forms. The class given is physicochemical. Particulars: excipients conventionally used for solid oral dosage forms such as tablets; e.g. as compound with phosphoric acid.

Regarding `CC(=N)NCCSCC[C@H](N)C(=O)O.O=P(O)(O)O` [phosphate salt of (2S)-2-amino4-{[2-(ethanimidoylamino)ethyl]thio}butanoic acid], the hygroscopicity entry in data set [1] is on record as “considerably less hygroscopic”.

In the case of `CC(=N)NCCSCC[C@H](N)C(=O)O` [(2S)-2-amino4-{[2-(ethanimidoylamino)ethyl]thio}butanoic acid], the “compatibility with standard pharmaceutical excipients” value in data set [2] was “exhibits incompatability with standard pharmaceutical excipients”.

These data come from patent publication US20050222260A1, “(2S)-2-amino-a-{[2-(ethanimidoylamino) ethyl]thio}butanoic acid, a nitric oxide synthase inhibitor, in stabilized pharmaceutical dosage forms” (priority 2003, published 2005).
